Laboratory results from patent US12534456B2, “Heterocyclyl pyridines as novel fungicides” (Bayer Aktiengesellschaft, priority 2020, dated 2026).
Like-named read-outs stand apart in the source and are kept apart here.

How the values were obtained:
[1] = physchem; format: physicochemical; details: Table 1, compounds of formula (I); method [a]: LC-UV, acidic range, 0.1% formic acid in water and acetonitrile
Procedure: Measurement of Log P values as provided herein was performed according to EEC directive 79/831 Annex V.A8 by HPLC (High Performance Liquid Chromatography) on reversed phase columns with the following methods: • ^[a]
If more than one Log P value is available within the same method, all the values are given and separated by “+”.
Lambda-max-values were determined using UV-spectra from 200 nm to 400 nm and the peak values of the chromatographic signals

[2] = test system: Septoria tritici; test: Septoria tritici in vitro cell test; format: cell-based; details: Zymoseptoria tritici, 168 h; 20 ppm of active ingredient; liquid culture with spores, 7 days incubation, spectrometric measurement of mycelium growth; read-out: efficacy (inhibition of fungal growth)
Procedure: B-8. Septoria tritici In Vitro Cell Test • Solvent: DMSO • Culture medium: 1 g KH2PO4 (VWR), 1 g K2HPO4 (VWR), 0.5 g Urea (VWR), 3 g KNO3 (Prolabo), 10 g saccharose (VWR), 0.5 g MgSO4, 7H2O (Sigma), 0.07 g CaCl2, 2H2O (Prolabo), 0.2 mg MnSO4, H2O (Sigma), 0.6 mg CuSO4, 5H2O (Sigma), 7.9 mg ZnSO4, 7H2O (Sigma), 0.1 mg H3BO3 (Merck), 0.14 mg NaMoO4, 2H2O (Sigma), 2 mg thiamine (Sigma), 0.1 mg biotine (VWR), 4 mg FeSO4, 7H2O (Sigma), QSP 1 liter • Inoculum: spore suspension Fungicides were solubilized in DMSO and the solution used to prepare the required range of concentrations. […] A spore suspension of S. tritici was prepared and diluted to the desired spore density. Fungicides were evaluated for their ability to inhibit spore germination and mycelium growth in liquid culture assay. The compounds were added in the desired concentration to the culture medium with spores. […] Inhibition of fungal growth was determined by comparing the absorbance values in wells containing the fungicides with the absorbance in control wells without fungicides.

[3] = test system: Colletotrichum lindemuthianum; test: Colletotrichum lindemuthianum in vitro cell test; format: cell-based; details: 144 h, 20 ppm of active ingredient, liquid culture with spores, 6 days incubation, spectrometric measurement of mycelium growth, read-out: efficacy (inhibition of fungal growth)
Procedure: (§1) B-7. Colletotrichum lindemuthianum In Vitro Cell Test • Solvent: DMSO • Culture medium: 14.6 g anhydrous D-glucose (VWR), 7.1 g Mycological Peptone (Oxoid), 1.4 g granulated Yeast Extract (Merck), QSP 1 liter • Inoculum: spores suspension • Fungicides were solubilized in DMSO and the solution used to prepare the required range of concentrations. […] A spore suspension of C. lindemuthianum was prepared and diluted to the desired spore density. Fungicides were evaluated for their ability to inhibit spores germination and mycelium growth in liquid culture assay. The compounds were added in the desired concentration to the culture medium with spores. After 6 days incubation, fungi-toxicity of compounds was determined by spectrometric measurement of mycelium growth. Inhibition of fungal growth was determined by comparing the absorbance values in wells containing the fungicides with the absorbance in control wells without fungicides.

[4] = test system: Pyricularia oryzae; test: microbe, parasite or virus in culture; format: cell-based; details: 120 h, read-out: efficacy (inhibition of fungal growth)
[5] = test system: Alternaria alternata; test: Alternaria alternata in vitro cell test; format: cell-based; details: 120 h, 20 ppm of active ingredient, liquid culture with spores, 5 days incubation, spectrometric measurement of mycelium growth, read-out: efficacy (inhibition of fungal growth)
Procedure: as §1, with “B-5. Alternaria alternata In” for “B-7. Colletotrichum lindemuthianum In”, “of A. alternata” for “of C. lindemuthianum”, “inhibit spore” for “inhibit spores”, “After 5” for “After 6”

[6] = test system: Fusarium culmorum; test: Fusarium culmorum in vitro cell test; format: cell-based; details: 96 h, read-out: efficacy (inhibition of fungal growth)
Procedure: B-9. Fusarium culmorum In Vitro Cell Test
• Solvent: DMSO • Culture medium: 14.6 g anhydrous D-glucose (VWR), 7.1 g Mycological Peptone (Oxoid), 1.4 g granulated Yeast Extract (Merck), QSP 1 liter • Inoculum: spore suspension
Fungicides were solubilized in DMSO and the solution used to prepare the required range of concentrations. The final concentration of DMSO used in the assay was ≤1%.
A spore suspension of F. culmorum was prepared and diluted to the desired spore density.
Fungicides were evaluated for their ability to inhibit spore germination and mycelium growth in liquid culture assay. The compounds were added in the desired concentration to the culture medium with spores. After 4 days incubation, fungi-toxicity of compounds was determined by spectrometric measurement of mycelium growth. Inhibition of fungal growth was determined by comparing the absorbance values in wells containing the fungicides with the absorbance in control wells without fungicides.

[7] = 20 ppm of active ingredient, liquid culture with spores, 4 days incubation, spectrometric measurement of mycelium growth

SMILES	chromatographic logP [1]	inhibition at 20 ppm [2] [%]	inhibition at 20 ppm [3] [%]	inhibition at 20 ppm [4] [%]	inhibition at 20 ppm [5] [%]	inhibition at 20 ppm [6] [%]	inhibition at 20 ppm [6, 7] [%]
Cc1ccc(C2CON=C(c3cc(Cl)ncc3Oc3cccc(C(F)(F)F)c3)N2)s1 (racemic) [Compound I-097, rac-(5S)-3-[2-chloro-5-[3-(trifluoromethyl)phenoxy]-4-pyridyl]-5-(5-methyl-2-thienyl)-5,6-dihydro-4H-1,2,4-oxadiazine]	3.87	90 to 100	90 to 100	70 to 79	90 to 100	90 to 100	
COc1ccc(C2NC(c3cc(Cl)ncc3Oc3cccc(C(F)(F)F)c3)=NOC2(F)F)cc1 (racemic) [Compound I-047, (5RS)-3-{2-chloro-5-[3-(trifluoromethyl)phenoxy]pyridin-4-yl}-6,6-difluoro-5-(4-methoxyphenyl)-5,6-dihydro-4H-1,2,4-oxadiazine]	4.14	90 to 100	90 to 100	90 to 100	90 to 100		80 to 89
FC(F)c1cccc(Oc2cnc(Cl)cc2C2=NOC[C@@H](Cc3ccc([C@H]4CCOC4)cc3Cl)N2)c1 (racemic) [Compound I-041, (5RS)-3-{2-chloro-5-[3-(difluoromethyl)phenoxy]pyridin-4-yl}-5-{2-chloro-4-[(3RS)-tetrahydrofuran-3-yl]benzyl}-5,6-dihydro-4H-1,2,4-oxadiazine]	3.81	70 to 79	90 to 100	80 to 89	90 to 100		
Cc1ccc(CC2CON=C(c3cc(C(F)(F)F)ncc3Oc3cccc(C(F)(F)F)c3)N2)c(C)c1 (racemic) [Compound I-034, (5RS)-5-(2,4-dimethylbenzyl)-3-{2-(trifluoromethyl)-5-[3-(trifluoromethyl)phenoxy]pyridin-4-yl}-5,6-dihydro-4H-1,2,4-oxadiazine]	4.89	90 to 100	90 to 100	90 to 100	90 to 100		70 to 79
Cc1ccc(CC2CON=C(c3cc(Cl)ncc3Oc3cccc(C(F)(F)F)c3)N2)c(C)c1 (racemic) [Compound I-001, (5RS)-3-{2-chloro-5-[3-(trifluoromethyl)phenoxy]pyridin-4-yl}-5-(2,4-dimethylbenzyl)-5,6-dihydro-4H-1,2,4-oxadiazine]	4.56		90 to 100	90 to 100	90 to 100	90 to 100	
Cc1ccc(CC2CON=C(c3ccncc3Oc3cccc(C(F)(F)F)c3)N2)cc1 (racemic) [Compound I-039, (5RS)-5-(4-methylbenzyl)-3-{3-[3-(trifluoromethyl)phenoxy]pyridin-4-yl}-5,6-dihydro-4H-1,2,4-oxadiazine]	3.47	80 to 89	90 to 100		90 to 100	90 to 100	
Cc1ccc(C[C@@H]2CON=C(c3cc([C@@H]4CCOC4)ncc3Oc3cccc(C(F)(F)F)c3)N2)cc1 (racemic) [Compound I-058, (5RS)-5-(4-methylbenzyl)-3-{2-[(3SR)-tetrahydrofuran-3-yl]-5-[3-(trifluoromethyl)phenoxy]pyridin-4-yl}-5,6-dihydro-4H-1,2,4-oxadiazine]	3.78	90 to 100	90 to 100	90 to 100	90 to 100	90 to 100	
Cc1cc(C2=NOCC(Cc3ccc(Cl)cc3Cl)N2)c(Oc2cccc(C3CC3)c2F)cn1 (racemic) [Compound I-029, (5RS)-3-[5-(3-cyclopropyl-2-fluorophenoxy)-2-methylpyridin-4-yl]-5-(2,4-dichlorobenzyl)-5,6-dihydro-4H-1,2,4-oxadiazine]	4.23	90 to 100	90 to 100	90 to 100	90 to 100	90 to 100	
Cc1cc(C2CC2)ccc1CC1CON=C(c2cc(Cl)ncc2Oc2cccc(C(F)(F)F)c2)N1 (racemic) [Compound I-107, rac-(5R)-3-[2-chloro-5-[3-(trifluoromethyl)phenoxy]-4-pyridyl]-5-[(4-cyclopropyl-2-methyl-phenyl)methyl]-5,6-dihydro-4H-1,2,4-oxadiazine]	4.88	90 to 100	90 to 100	90 to 100	80 to 89		
